Laboratory results: PMC7070898 (Clinical and Translational Science, 2019)

Experiment: Plasma pharmacokinetics, noncompartmental, SAD/MAD trial
Format: in vivo, human
Settings: for Vd/F / half-life: human, in vivo; for Vd/F: Vz/F, N 9, geometric mean (CV% GM)

C=CC(=O)N1CCC(CNc2ncnc(N)c2-c2ccc(Oc3ccccc3)cc2)CC1 [evobrutinib]
Vd/F (25 mg, multiple-dose study day 1, 25 mg): 498 L | Vd/F (75 mg, multiple-dose study day 1, 75 mg): 620 L | Vd/F (200 mg, multiple-dose study day 1, 200 mg): 647 L | half-life (500 mg, geometric mean terminal half‐life (t1/2), single doses 350 and 500 mg): 6.6 to 6.8 h | half-life (geometric mean terminal half‐life (t1/2), single doses 25–200 mg): 1.8 to 2.6 h | half-life (half‐life (relevant t1/2), overall summary, all doses): ~2 h | dose proportionality of AUC0–24h and Cmax (multiple dosing of 25–200 mg, power model): Dose proportionality of AUC0–24h and Cmax was demonstrated | time dependency of PK (part 2, day 14 vs day 1): no time dependency | Apparent clearance across doses (single dosing 25–500 mg, part 1): 2,553–3,995 mL/minute
